Consider 20 compounds from patent US20250263390A1, “NOVEL SUBSTITUTED 6,7-DIHYDRO-5H-BENZO[7]ANNULENE COMPOUNDS AND THEIR DERIVATIVES, PROCESSES FOR THEIR PREPARATION AND THERAPEUTIC USES THEREOF” (SANOFI, priority 2022, published 2025).

In this assay the target is T1, ERα (Homo sapiens, UniProt P03372).
T1 construct: host or cells: MCF7
T1 sequence (P03372 1-595): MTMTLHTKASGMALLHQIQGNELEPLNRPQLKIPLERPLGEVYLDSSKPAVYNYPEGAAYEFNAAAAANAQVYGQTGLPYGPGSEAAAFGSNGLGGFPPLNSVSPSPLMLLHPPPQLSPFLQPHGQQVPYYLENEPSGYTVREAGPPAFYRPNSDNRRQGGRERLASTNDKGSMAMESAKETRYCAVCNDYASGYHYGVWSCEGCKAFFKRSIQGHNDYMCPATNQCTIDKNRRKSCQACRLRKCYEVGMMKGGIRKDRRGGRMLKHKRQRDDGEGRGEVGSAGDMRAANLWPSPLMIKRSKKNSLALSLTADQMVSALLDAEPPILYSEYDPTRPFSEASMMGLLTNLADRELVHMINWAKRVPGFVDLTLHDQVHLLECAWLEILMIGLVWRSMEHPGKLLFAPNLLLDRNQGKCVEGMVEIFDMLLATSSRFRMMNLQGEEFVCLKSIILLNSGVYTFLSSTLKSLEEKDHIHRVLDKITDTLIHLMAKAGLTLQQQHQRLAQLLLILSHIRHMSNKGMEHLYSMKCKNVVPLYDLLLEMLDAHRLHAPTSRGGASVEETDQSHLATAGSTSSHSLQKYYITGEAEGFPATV
The assay is described as follows: Estrogen receptor degradation activity: breast cancer cell ERα in cell western assay. The assay is classed as cell-based. To be noted: MCF7 cells, 4 hours, relative to fulvestrant 0.1 μM positive control. The procedure: Test: Estrogen Receptor Degradation Activity Said test involves measuring the in vitro degradation activity of the compounds of the Table 1a. The measurements of the degradation activities were made using a breast cancer cell ERα in cell western assay as described hereunder. MCF7 cells (ATCC) were seeded in 384 wells microplate (collagen coated) at a concentration of 10000 cells/30 μL per well in red phenol free MEM alpha medium (invitrogen) containing 5% charcoal dextran striped FBS. The following day, 9 points serial 1:5 dilution of each compound was added to the cells in 2.5p L at final concentrations ranging from 0.3-0.0000018 μM (in table 2), or 0.1 μM for fulvestrant (using as positive control). At 4 hours post compound addition the cells were fixed by adding 25 μL of formalin (final concentration 5% formalin containing 0.1% triton) for 10 minutes at room temperature and then washed twice with PBS. Then, 50 μL of LI-COR blocking buffer containing 0.1% Triton was added to plate for 30 minutes at room temperature. LI-COR blocking buffer was removed and cells were incubated overnight at cold room with 50 μL anti-ER rabbit monoclonal antibody (Thermo scientific MA1-39540) diluted at 1:1000 in LI-COR blocking buffer containing 0.1% tween-20. Wells which were treated with blocking buffer but no antibody were used as background control. Wells were washed twice with PBS (0.1% tween-20) and incubated at 37° C. for 60 minutes in LI-COR (0.1% tween-20) containing goat anti-rabbit antibody Alexa 488 (1:1000) and Syto-64 a DNA dye (2 μM final concentration). Cells were then washed 3 times in PBS and scanned in ACUMEN explorer (TTP-Labtech). Integrated intensities in the green fluorescence and red fluorescence were measured to determine the levels of ERα and DNA respectively. The degradation activity with respect to estrogen receptors in this test is given by the concentration which degrades 50% of the estrogen receptor (or IC50) in nM. The % of ERα levels decrease were determined as follows: % inhibition=100*(1−(sample−fulvestrant: DMSO−fulvestrant)).
In the case of `Cc1cccc(F)c1C1=C(c2ccc(CC3CN(CCCF)C3)cc2)c2ccc(C(=O)O)cc2CCC1.Cl` [Compound 41, 8-(2-fluoro-6-methylphenyl)-9-(4-((1-(3-fluoropropyl)azetidin-3-yl)methyl)phenyl)-6,7-dihydro-5H-benzo[7]annulene-3-carboxylic acid, hydrochloride], the “% Degradation At 0.3 μM” value is 91%. With `Cc1cc(C2=C(c3ccc(CC4CN(CCCF)C4)cc3)c3ccc(C(=O)O)cc3CCC2)ccc1C(F)F.Cl` [Compound 42, 8-(4-(difluoromethyl)-3-methylphenyl)-9-(4-((1-(3-fluoropropyl)azetidin-3-yl)methyl)phenyl)-6,7-dihydro-5H-benzo[7]annulene-3-carboxylic acid, hydrochloride], the “% Degradation At 0.3 μM” value is on record as 91%.

As for `O=C(O)c1ccc2c(c1)CCCC(c1c(F)cccc1OC(F)(F)F)=C2c1ccc(CC2CN(CCCF)C2)cc1` [Compound 43, 8-(2-fluoro-6-(trifluoromethoxy)phenyl)-9-(4-((1-(3-fluoropropyl)azetidin-3-yl)methyl)phenyl)-6,7-dihydro-5H-benzo[7]annulene-3-carboxylic acid], the “% Degradation At 0.3 μM” value came out at 92%.

Consider `COc1cccc(Cl)c1C1=C(c2ccc(CC3CN(CCCF)C3)cc2)c2ccc(C(=O)O)cc2CCC1` [Compound 44, 8-(2-chloro-6-methoxyphenyl)-9-(4-((1-(3-fluoropropyl)azetidin-3-yl)methyl)phenyl)-6,7-dihydro-5H-benzo[7]annulene-3-carboxylic acid], for which the “% Degradation At 0.3 μM” value is 92%.

With `COc1cccc(F)c1C1=C(c2ccc(CC3CN(CCCF)C3)cc2)c2ccc(C(=O)O)cc2CCC1` [Compound 45, 8-(2-fluoro-6-methoxyphenyl)-9-(4-((1-(3-fluoropropyl)azetidin-3-yl)methyl)phenyl)-6,7-dihydro-5H-benzo[7]annulene-3-carboxylic acid], the “% Degradation At 0.3 μM” value is given as 92%. With `COc1cccc(C2=C(c3ccc(CC4CN(CCCF)C4)cc3)c3ccc(C(=O)O)cc3CCC2)c1OC` [Compound 46, 8-(2,3-dimethoxyphenyl)-9-(4-((1-(3-fluoropropyl)azetidin-3-yl)methyl)phenyl)-6,7-dihydro-5H-benzo[7]annulene-3-carboxylic acid], the “% Degradation At 0.3 μM” value is recorded as 93%. Regarding `O=C(O)c1ccc2c(c1)CCCC(c1ccc(F)c(O)c1F)=C2c1ccc(CC2CN(CCCF)C2)cc1` [Compound 47, 8-(2,4-difluoro-3-hydroxyphenyl)-9-(4-((1-(3-fluoropropyl)azetidin-3-yl)methyl)phenyl)-6,7-dihydro-5H-benzo[7]annulene-3-carboxylic acid], the “% Degradation At 0.3 μM” value is 100%. As for `COc1cccc(C)c1C1=C(c2ccc(CC3CN(CCCF)C3)cc2)c2ccc(C(=O)O)cc2CCC1.Cl` [Compound 48, 9-(4-((1-(3-fluoropropyl)azetidin-3-yl)methyl)phenyl)-8-(2-methoxy-6-methylphenyl)-6,7-dihydro-5H-benzo[7]annulene-3-carboxylic acid, hydrochloride], the “% Degradation At 0.3 μM” value is given as 92%. The result for `COc1c(C)cccc1C1=C(c2ccc(CC3CN(CCCF)C3)cc2)c2ccc(C(=O)O)cc2CCC1.Cl` [Compound 49, 9-(4-((1-(3-fluoropropyl)azetidin-3-yl)methyl)phenyl)-8-(2-methoxy-3-methylphenyl)-6,7-dihydro-5H-benzo[7]annulene-3-carboxylic acid, hydrochloride] reads 92%; that for `O=C(O)c1ccc2c(c1)CCCC(c1c(Cl)cccc1OC(F)(F)F)=C2c1ccc(CC2CN(CCCF)C2)cc1` [Compound 50, 8-(2-chloro-6-(trifluoromethoxy)phenyl)-9-(4-((1-(3-fluoropropyl)azetidin-3-yl)methyl)phenyl)-6,7-dihydro-5H-benzo[7]annulene-3-carboxylic acid], 91%. The result for `COc1cccc(OC)c1C1=C(c2ccc(CC3CN(CCCF)C3)cc2)c2ccc(C(=O)O)cc2CCC1.Cl` [Compound 51, 8-(2,6-dimethoxyphenyl)-9-(4-((1-(3-fluoropropyl)azetidin-3-yl)methyl)phenyl)-6,7-dihydro-5H-benzo[7]annulene-3-carboxylic acid, hydrochloride] reads 92%; that for `O=C(O)c1ccc2c(c1)CCCC(c1ccc(C(F)(F)F)c(O)c1)=C2c1ccc(CC2CN(CCCF)C2)cc1` [Compound 52, 9-(4-((1-(3-fluoropropyl)azetidin-3-yl)methyl)phenyl)-8-(3-hydroxy-4-(trifluoromethyl)phenyl)-6,7-dihydro-5H-benzo[7]annulene-3-carboxylic acid], 90%. For the compound `Cc1cc(C)c(C2=C(c3ccc(CC4CN(CCCF)C4)cc3)c3ccc(C(=O)O)cc3CCC2)c(Cl)c1` [Compound 53, 8-(2-chloro-4,6-dimethylphenyl)-9-(4-((1-(3-fluoropropyl)azetidin-3-yl)methyl)phenyl)-6,7-dihydro-5H-benzo[7]annulene-3-carboxylic acid], the “% Degradation At 0.3 μM” value is recorded as 88%. As for `Cc1cccc(C2=C(c3ccc(CC4CN(CCCF)C4)cc3)c3ccc(C(=O)O)cc3CCC2)c1C(F)F.Cl` [Compound 54, 8-(2-(difluoromethyl)-3-methylphenyl)-9-(4-((1-(3-fluoropropyl)azetidin-3-yl)methyl)phenyl)-6,7-dihydro-5H-benzo[7]annulene-3-carboxylic acid, hydrochloride], the “% Degradation At 0.3 μM” value is recorded as 90%. `COc1cc(C)c(C2=C(c3ccc(CC4CN(CCCF)C4)cc3)c3ccc(C(=O)O)cc3CCC2)c(C)c1` [Compound 55, 9-(4-((1-(3-fluoropropyl)azetidin-3-yl)methyl)phenyl)-8-(4-methoxy-2,6-dimethylphenyl)-6,7-dihydro-5H-benzo[7]annulene-3-carboxylic acid]: the “% Degradation At 0.3 μM” value was found to be 95%.

For `Cc1ccc(C2=C(c3ccc(CC4CN(CCCF)C4)cc3)c3ccc(C(=O)O)cc3CCC2)cc1O` [Compound 56, 9-(4-((1-(3-fluoropropyl)azetidin-3-yl)methyl)phenyl)-8-(3-hydroxy-4-methylphenyl)-6,7-dihydro-5H-benzo[7]annulene-3-carboxylic acid], the “% Degradation At 0.3 μM” value was found to be 95%. The result for `Cc1ccc(C2=C(c3ccc(CC4CN(CCCF)C4)cc3)c3ccc(C(=O)O)cc3CCC2)c(C)c1F` [Compound 57, 8-(3-fluoro-2,4-dimethylphenyl)-9-(4-((1-(3-fluoropropyl)azetidin-3-yl)methyl)phenyl)-6,7-dihydro-5H-benzo[7]annulene-3-carboxylic acid] reads 92%; that for `Cc1ccc(C2=C(c3ccc(CC4CN(CCCF)C4)cc3)c3ccc(C(=O)O)cc3CCC2)c(C)c1Cl` [Compound 58, 8-(3-chloro-2,4-dimethylphenyl)-9-(4-((1-(3-fluoropropyl)azetidin-3-yl)methyl)phenyl)-6,7-dihydro-5H-benzo[7]annulene-3-carboxylic acid], 90%. In the case of `O=C(O)c1ccc2c(c1)CCCC(c1cccc(C(F)(F)F)c1C(F)(F)F)=C2c1ccc(CC2CN(CCCF)C2)cc1` [Compound 59, 8-(2,3-bis(trifluoromethyl)phenyl)-9-(4-((1-(3-fluoropropyl)azetidin-3-yl)methyl)phenyl)-6,7-dihydro-5H-benzo[7]annulene-3-carboxylic acid], the “% Degradation At 0.3 μM” value was determined as 95%.

As for `COc1ccc(C(F)F)c(C2=C(c3ccc(CC4CN(CCCF)C4)cc3)c3ccc(C(=O)O)cc3CCC2)c1.Cl` [Compound 60, 8-(2-(difluoromethyl)-5-methoxyphenyl)-9-(4-((1-(3-fluoropropyl)azetidin-3-yl)methyl)phenyl)-6,7-dihydro-5H-benzo[7]annulene-3-carboxylic acid, hydrochloride], the “% Degradation At 0.3 μM” value is recorded as 95%.
